Reference: publication PMC12152883, “Bile acids inhibit equilibrative adenosine transport to alter adenosine receptor signaling in cholestasis” (The Journal of Biological Chemistry, 2025)

Experiments:
cAMP = cAMP levels in CA-treated HeLa cell lysate; assay type: cell-based; conditions: 100 μM CA, 14 h; control 0.96 ± 0.14
[1] = Cholestatic mouse model: liver CA, 13C-Ado and total Ado by LC/MS-MS; assay type: in vivo; conditions: includes endogenous Ado
Protocol: We also examined the total Ado content (includes endogenous Ado) in the harvested mouse livers using LC‒MS‒MS.
Adenosine and ^13C-Ado concentrations were determined in liver tissue samples using a targeted LC‒MS/MS method. The liver samples (∼50 mg) were homogenized with 80% methanol and spiked with 1 μg/ml reserpine as an internal standard. The samples were thoroughly vortexed for 30 s and then centrifuged at 20,000g for 10 min. The supernatant was collected in labeled Eppendorf tubes, and 15 μl of each sample was injected into the LC‒MS/MS system. […] The operational mass spectrometric parameters included a capillary voltage of 4.5 kV; sheath gas of 35 arbitrary units; auxiliary gas of 10 arbitrary units; sweep gas of two arbitrary units; ion transfer tube temperature of 350 °C; vaporizer temperature of 450 °C; dwell time of 50 ms per transition, and collision-induced dissociation gas of 1.5 mTorr. The collision energy was set at 20 V for both Ado and ^13C-Ado, whereas it was set to 38 V for reserpine. Chromatographic separation was performed on a Scherzo SMC18 column (150 × 4.6 mm; 3 μm particle size) from Imtakt. […]
Two hours after the injection, mouse livers were harvested, and the amount of ^13C-Ado uptake in the liver was quantified via LC–MS-MS. […]

PKC = PKC activity in CA-treated HeLa cells; assay type: cell-based; conditions: 100 μM CA, 14 h; control 0.01 ± 0.002
Protocol: (§1) High concentrations of BAs that inhibit ENT-mediated Ado transport could lead to an increase in extracellular Ado levels and therefore impact cell surface AdoR signaling.
(§2) PKC activity was measured using PKC kinase activity kit (ADI-EKS-420A) purchased from Enzo Biochem. IP3 levels were quantified using an IP3 (Inositol Triphosphate) ELISA Kit (EKF58173) supplied by Biomatik Corporation.

IP3 = IP3 levels in CA-treated HeLa cells; assay type: cell-based; conditions: 100 μM CA, 14 h; control 0.011 ± 0.0004
Protocol: as §1, §2

C[C@H](CCC(=O)O)[C@H]1CC[C@H]2[C@@H]3[C@H](O)C[C@@H]4C[C@H](O)CC[C@]4(C)[C@H]3C[C@H](O)[C@]12C [CA, cholic acid]
cAMP levels in total HeLa cell lysate (cAMP): 1.28 ± 0.04 pMol/μg protein
reduction in the total Ado level in liver compared with control mice [1]: ~12%
PKC activity in HeLa cells (PKC): 0.02 ± 0.0001 U/μg protein
IP3 levels in HeLa cells (IP3): 0.023 ± 0.0006 μg/μg protein
